Values quoted from earlier work in patent US12090147B2, “Combination therapy with 2-(4-chlorophenyl)-N-((2-(2,6-dioxopiperidin-3-yl)-1-oxoisoindolin-5-yl)methyl)-2,2-difluoroacetamide” (Celgene Corporation, priority 2019, dated 2024).

Test system: acute myeloid leukemia (AML) at relapse
Settings: administered alone; cited from earlier work

## CT-011: anti-PD-1 antibody, a humanized antibody
  Response in treating AML at relapse: failed to show response
